Key:
Mus musculus [1] = assay: Inhibition of 3C18-oleate absorption in tyloxapol-treated C57BL/6 mouse plasma at 300 mg/kg administered through gavage for 1 hr followed by 3C18-oleate addition measured after 0.5 to 6 hrs by LC/MS-MS analysis; assay type: functional; conditions: C57BL/6, Plasma, po
[2] = biological target: Long-chain fatty acid transport protein 2 (Homo sapiens, UniProt O14975); assay: Inhibition of FATP2 in human HepG2 cells assessed as decrease in fatty acid transport after 5 mins by trypan blue dye based fluorescence quenching method; assay type: cell-based
Mus musculus [3] = assay: Upregulation of FATP2 mRNA level in C57BL mouse small intestine at 0.01% administered through diet for 3 days by RT-PCR analysis; assay type: functional
Mus musculus [4] = assay: Downregulation of FATP2 mRNA level in […] null C57BL mouse small intestine at 0.01% administered through diet for 3 days by RT-PCR analysis; assay type: functional
Mus musculus [5] = assay: Downregulation of FATP2 mRNA level in […] null C57BL mouse small intestine at 0.1% administered through diet for 3 days by RT-PCR analysis; assay type: functional
Mus musculus [6] = assay: Upregulation of FATP2 mRNA level in C57BL mouse small intestine at 0.1% administered through diet for 3 days by RT-PCR analysis; assay type: functional

Long-chain fatty acid transport protein 2, sequence (O14975 whole entry, looked up): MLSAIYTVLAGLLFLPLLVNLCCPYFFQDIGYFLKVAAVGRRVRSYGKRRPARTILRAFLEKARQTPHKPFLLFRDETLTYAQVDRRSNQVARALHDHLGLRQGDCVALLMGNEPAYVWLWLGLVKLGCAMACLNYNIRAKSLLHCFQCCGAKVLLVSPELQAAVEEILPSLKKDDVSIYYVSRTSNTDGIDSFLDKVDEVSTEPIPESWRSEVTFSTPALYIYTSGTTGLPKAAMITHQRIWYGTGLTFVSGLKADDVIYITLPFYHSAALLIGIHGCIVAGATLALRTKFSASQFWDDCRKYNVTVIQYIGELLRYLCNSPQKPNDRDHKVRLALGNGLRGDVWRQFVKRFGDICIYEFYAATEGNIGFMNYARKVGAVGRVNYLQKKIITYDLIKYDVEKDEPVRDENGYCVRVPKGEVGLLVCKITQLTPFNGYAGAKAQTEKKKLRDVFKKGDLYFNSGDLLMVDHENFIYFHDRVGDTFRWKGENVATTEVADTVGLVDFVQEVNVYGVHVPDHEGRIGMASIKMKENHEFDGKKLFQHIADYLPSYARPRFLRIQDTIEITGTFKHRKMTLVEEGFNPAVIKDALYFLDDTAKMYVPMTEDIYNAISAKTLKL

O=C1Nc2ccc(Br)cc2C12NN=C(c1ccccc1)S2 (configuration not stated)
inhibition in vivo at 300 mg/kg (Mus musculus [1]): 80% | IC50 [2]: 6.7 µM

O=c1cc(-c2ccc([N+](=O)[O-])cc2)[nH]c2c(-c3ccc(Cl)cc3)c(Cc3ccccc3)nn12
IC50 [2]: 6.3 µM

CC(C)(Sc1ccc(CCN(CCCCC2CCCCC2)C(=O)NC2CCCCC2)cc1)C(=O)O [GW7647]
fold change (FC) (Mus musculus [3]): 4 | fold change (FC) (Mus musculus [4]): 2

Cc1cccc(Nc2cc(Cl)nc(SCC(=O)O)n2)c1C [PIRINIXIC ACID]
fold change (FC) (Mus musculus [5]): 2 | fold change (FC) (Mus musculus [6]): 4
